Assay: Cytotoxicity tests of photoinitiator in polymer system
Format: cell-based
Details: photoinitiator at about 0.01-1 wt % of the polymer system
Description: A UV-Lamp (Model B100AP; Black-Ray) was used to photopolymerize the solutions for 10 minutes at an intensity of 10 mW/cm^2. The mould is slowly but constantly rotated during photopolymerization. After processing of all materials, polymers were heat treated at 90° C. for 1 hour to ensure the complete conversion of monomers. The photoinitiator 2,2-dimethoxy-2-phenylacetephenone was used although a variety of other initiators can also be used. […] Glass transition temperature (Tg) and rubbery modulus can be controlled by, for example, changing the weight percent (wt %) of the crosslinker, for example, PEGDMA (Mn 550) as shown in FIG. 9.

With `COC(OC)(C(=O)c1ccccc1)c1ccccc1` [2,2-dimethoxy-2-phenylacetephenone] the “biocompatibility of the polymer (cytotoxicity tests)” value was “should not affect the biocompatibility of the polymer”.

— US20090248141A1, “Shape Memory Polymer Medical Devices” (THE REGENTS OF THE UNIVERSITY OF COLORADO, priority 2006, published 2009)
